Assay: serum dehydroepiandrosterone sulfate after topical application of the composition
Assay type: in vivo
Settings: blood sample of recipient after application to skin
Source text: Delivery of dehydroepiandrosterone to the recipient's blood stream can be confirmed by analysis of a blood sample taken from the recipient.

What does the source list for C[C@]12CC[C@H](O)CC1=CC[C@@H]1[C@@H]2CC[C@]2(C)C(=O)CC[C@@H]12 [dehydroepiandrosterone]?
plateau of serum dehydroepiandrosterone sulfate relative to baseline: at least twice baseline levels; time to increased serum levels of dehydroepiandrosterone sulfate: within twenty-four hours

Source: patent publication US20050232983A1, “Transdermal patch” (INDEVUS PHARMACEUTICALS, INC., priority 2004, published 2005)
